This note sets out measurements from publication PMC6176321, “Efficient Synthesis of Glutamate Peptide-Estradiol Conjugate for Imaging Estrogen Receptor-Positive Diseases” (BioMed Research International, 2018).

Ends that are not written are not given here.

The subject of data set [1] is MCF7 (ER+) breast cancer cells. In words: In vitro cellular uptake assay (sensitivity). It counts as cell-based. The settings on record: 50,000 cells/well, 4 uCi/80uL/well, 4ug/well, average of three measurements. The method, then: (§1) In vitro cellular uptake studies of ^68Ga-GAP-EDL in breast tumor cells were performed. Breast cancer cell lines with high (MCF7; ER+) and low (SK-BR-3; ER-) estrogen receptor densities were used to determine the sensitivity and specificity for the cellular uptake assay. Briefly, for sensitivity assay, breast tumor cells (50,000 cells/well, 12 wells) were added with ^68GaCl3, ^68Ga-GAP, and ^68Ga-GAP-EDL (4 uCi/80uL/well, 4ug/well). The cells were incubated for 0.5-2 hrs. […] After incubation, the supernatant was collected. The cells were washed twice with ice cold PBS (1 ml) and trypsin EDTA (0.1 ml). After 2 min, the cells were collected. The wells were washed twice with cold PBS (0.5ml). The total volume of cell supernatant and the total volume containing cells were transferred to test tube to count the activity separately. Each piece of data represents an average of three measurements. Percentage of uptake (%)=cell activity/(cell supernatant+ cell activity)∗100% was calculated.

Data set [2] relates to SK-BR-3 (ER-) breast cancer cells. In words: In vitro cellular uptake assay (sensitivity). The following applies: 50,000 cells/well, 4 uCi/80uL/well, 4ug/well, average of three measurements. It counts as cell-based. The method, then:
as §1

Data set [3] is described as follows: Micro-PET/CT imaging, tumor-to-muscle count density ratio. Also on record: species or system mice. The settings on record: mouse, in vivo, 0.14 mg per 100uCi (0.2 mL) per mouse, 0.14mg per 100μCi, iv, n=2 per compound. The method, then:
For PET imaging studies, athymic nude mice (n=2 per compound) inoculated with MCF-7 cells (s.c. 10^6 cells/mouse) at the left hind legs. When tumor reached 0.7cm, the tumor-bearing mice were anesthetized with 2% isoflurane on prone position. ^68Ga chloride (5mCi) was obtained by eluting a ^68Ge/^68Ga generator (20mCi size from Eckert Ziegler, Germany) with HCL (0.1N, 1.5 mL). Labeling GAP (1 mg) and GAP-EDL (1mg) was achieved by dissolving both compounds in sodium acetate (0.4 mL, 0.1N, pH 5.4), followed by adding ^68Ga chloride (1mCi, 0.3mL). Both compounds were sat at 37°C for 20 min. For animal imaging studies, the concentrations were diluted to 1.5mL/mg by adding saline (0.9%). Each mouse was administered with ^68Ga-GAP and ^68Ga-GAP-EDL (0.14mg per 100μCi, 0.2 mL, iv). ^68Ga-GAP and ^68Ga-GAP-EDL imaging studies were performed with a Siemens Inveon micro-PET/CT scanner (Siemens Medical Systems, Hoffman Estates, IL). Three serial 30-minute trans-axial PET images were obtained. All corrections for attenuation, scatter, and dead time were applied to generate quantifiable images. Regions of interests were then drawn on the tumor tissue and muscle regions and time activity curves were generated, the counts per pixel were used to determine tumor tissue-to-muscle tissue count density ratios.

Turning to `[Cl][68Ga]([Cl])[Cl]` [^68GaCl3], the Percentage of uptake in data set [1] (MCF-7, 30min incubation) came to 1.35±0.35%; in data set [1] (MCF-7, 1h incubation) it was 1.79±0.28%; in data set [1] (MCF-7, 2h incubation), 1.63±0.33%; in data set [2] (SK-BR-3, 30min incubation), 1.74±0.21%; in data set [2] (SK-BR-3, 1h incubation) it was 1.80±0.20%; in data set [2] (SK-BR-3, 2h incubation), 2.21±0.11%.
For EEEEEE [^68Ga-GAP, metal not drawn], the Percentage of uptake stood at 2.20±0.73% in data set [1] (MCF-7, 30min incubation); 3.20±1.17% in data set [1] (MCF-7, 1h incubation); 2.43±0.71% in data set [1] (MCF-7, 2h incubation); 1.84±0.27% in data set [2] (SK-BR-3, 30min incubation); 3.11±1.29% in data set [2] (SK-BR-3, 1h incubation); 2.45±0.21% in data set [2] (SK-BR-3, 2h incubation). In addition, the tissue to tissue ratio at 0.5 h in data set [3] (30 min) was 1.1 ± 0.02. Also, the tissue to tissue ratio at 1 h in data set [3] (60 min) worked out at 1.2 ± 0.01. In data set [3] (90 min), the tissue to tissue ratio at 1.5 h was found to be 1.2 ± 0.02.
